Experimental findings from US20230234943A1, “TREX1 INHIBITORS AND USES THEREOF” (Tempest Therapeutics, Inc., priority 2020, published 2023) are described below.

The target of test [1] is T1, Human TREX1 enzyme (amino acids 1-242) (Homo sapiens, UniProt Q9NSU2).
T1 construct: Human TREX1 enzyme (amino acids 1-242)
T1 sequence (Q9NSU2 1-242): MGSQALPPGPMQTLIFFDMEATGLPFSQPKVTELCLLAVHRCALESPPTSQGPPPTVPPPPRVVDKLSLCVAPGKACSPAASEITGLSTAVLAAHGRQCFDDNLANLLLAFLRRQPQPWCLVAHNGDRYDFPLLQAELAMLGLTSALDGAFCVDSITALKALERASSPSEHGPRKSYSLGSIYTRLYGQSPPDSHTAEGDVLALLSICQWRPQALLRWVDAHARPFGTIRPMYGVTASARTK
The test can be described thus: Human TREX1 enzymatic assay with dsDNA native oligonucleotide (Picogreen fluorescence). In kind it is biochemical. Particulars: 2 mM dithiothreitol in assay buffer; 50 nM dsDNA oligonucleotide; 30 min preincubation at 25° C.; read-out: TREX1/Human + DTT IC50 AVG. The procedure, abridged: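 TREX1 (0.8–0.16 nM final) preincubated with compound (300 μM–13 nM or 30 μM–1.5 nM, 2% DMSO) 30 min at 25 °C in Tris pH 7.7, 5 mM MgCl2, 2 mM DTT. Annealed dsDNA (50 nM) added for 5–15 min at 25 °C; EDTA quench with Picogreen fluorescence readout.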

In the next test the target is T2, Human TREX1 (Homo sapiens, UniProt Q9NSU2).
T2 sequence (Q9NSU2 1-314): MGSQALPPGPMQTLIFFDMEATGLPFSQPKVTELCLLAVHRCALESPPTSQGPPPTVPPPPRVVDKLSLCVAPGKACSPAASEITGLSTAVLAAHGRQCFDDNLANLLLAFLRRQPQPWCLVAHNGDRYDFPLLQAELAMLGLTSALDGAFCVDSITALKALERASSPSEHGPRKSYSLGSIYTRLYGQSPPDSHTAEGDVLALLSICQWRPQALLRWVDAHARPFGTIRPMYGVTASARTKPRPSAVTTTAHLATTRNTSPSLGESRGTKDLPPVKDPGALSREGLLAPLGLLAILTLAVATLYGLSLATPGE
The test can be described thus: Gel assay (orthogonal control, IR-680 oligonucleotide strand degradation). Particulars: polyacrylamide gel, top band intensity; different doses of inhibitor. The format is biochemical. As to the method: A gel assay was conducted as an orthogonal control to confirm observations of TREX1 inhibitors determined with the fluorescence-based assay. Briefly, compounds were diluted in DMSO at 50× the final concentration. Human TREX1 was diluted to […] (2×concentration) in assay buffer (assay buffer: 20 mM Tris pH 7.7 (Life T-echnologies), 5 mM MgCl2 (Sigma), 0.01% HSA (Sigma), 0.01% Brij-35 (ThermoFisher), 2 mM DTT (Sigma)). Oligonucleotide strand (IR-680-5′[…]-3′) (Custom probe made by Trilink) was diluted in the same assay buffer to a working concentration of 25 nM (final concentration of 12.5 nM). Example 107 was added to […] human TREX1 enzyme in clear 96 well plates. The plate was then incubated at 25° C. for 30 minutes. Twenty five nM oligonucleotide strand was added to the plate, to a final concentration of 30 pM TREX1, 12.5 nM oligo, 1× compound and incubated at 25° C. Fifteen minutes later, the reaction was stopped by removing 10 μl of the reaction and adding it to 20 μl of a solution of 50 mM EDTA/1.5× loading dye buffer (6× Orange DNA loading dye; ThermoFisher) in a 96 well PCR plate. […] The top band was quantified using Image Studio (Licor). […] The top band intensity was measured using the Odyssey scanner (Li-Cor) and ImageStudio software (Li-Cor) and FIG. 1B: Graph representing the percent of top band intensity degradation as a measure of human TREX1 activity. […]

Turning to `COc1cc(-c2nc3ccc(N4CCN(S(C)(=O)=O)CC4)cc3n2C2CCOC2)cc(O)c1O` (centres unmarked) [Example 107, 3-methoxy-5-(6-(4-(methylsulfonyl)piperazin-1-yl)-1-(tetrahydrofuran-3-yl)-1H-benzo[d]imidazol-2-yl)benzene-1,2-diol], the IC50 in test [1] lay within 1 to 10 µM. For the same compound, the “inhibition of human TREX1 / DNA degradation in gel assay (FIGS. 1A and 1B)” value against Human TREX1 was “inhibits human TREX1 and prevents DNA degradation”.
